ChEMBL document CHEMBL6121010, “Novel antileukemic compound with sub-micromolar potency against STAT5 addicted myeloid leukemia cells” (Eur J Med Chem, 2025)

Legend:
MOLM-13 = assay: Antileukemic activity against human MOLM-13 assessed as cell viability incubated for 48 hrs by MTT assay; assay type: functional, cell-based; conditions: MOLM-13, 48 h
[1] = Cytotoxicity against human HS-27A assessed as cell viability incubated for 48 hrs by MTT assay; assay type: toxicity, cell-based; conditions: HS-27A cells
MV4-11 = assay: Antileukemic activity against human MV4-11 cell line assessed as inhibition of cell growth incubated for 48 hrs by MTT assay; assay type: functional, cell-based; conditions: MV4-11, 48 h
KU812 cell line = assay: Antileukemic activity against human KU812 cell line assessed as inhibition of cell growth incubated for 48 hrs by MTT assay; assay type: functional, cell-based; conditions: KU812, 48 h
KCL-22 = assay: Antileukemic activity against human KCL-22 assessed as cell viability incubated for 48 hrs by MTT assay; assay type: functional, cell-based; conditions: KCL-22, 48 h
[2] = Cytotoxicity against Bone marrow cell (unknown origin) assessed as cell viability incubated for 48 hrs by MTT assay; assay type: toxicity, cell-based; conditions: bone marrow cells (unknown origin)
K562 = assay: Antileukemic activity against human K562 assessed as cell viability incubated for 48 hrs by MTT assay; assay type: functional, cell-based; conditions: K562, 48 h

Work on `CC1(C)CCN(CCOc2ccc3[nH]ccc3c2)c2ccc(-c3cnc(N)nc3)cc21` yielded an EC50 (MOLM-13) of 0.3 µM, an EC50 at 48 h [1] of 43.9 µM and an EC50 (MV4-11) of 0.4 µM. The EC50 (KU812 cell line) was 2.3 µM, the EC50 (KCL-22) was 0.3 µM and the EC50 at 48 h [2] was 14.5 µM. For the same molecule, the EC50 (K562) was 2.9 µM.
With `CC1(C)CCN(CCOc2ccc3[nH]ccc3c2)c2ccc(-c3cnccn3)cc21` the EC50 (MV4-11) was 7.7 µM and the EC50 (KU812 cell line) was 48.1 µM.
For `CC1(C)CCN(CCOc2ccc3[nH]ccc3c2)c2ccc(-c3ncccn3)cc21`, the EC50 (MV4-11) was 4.5 µM and the EC50 (KU812 cell line) was 29.5 µM.
In the case of `CC1(C)CCN(CCOc2ccc3[nH]ccc3c2)c2cccc(Cc3ccccn3)c21`, the EC50 (MV4-11) is reported as 12.4 µM and the EC50 (KU812 cell line) is reported as 74.4 µM.
Molecule `CC1(C)CCN(CCOc2ccc3[nH]ccc3c2)c2ccc(-c3cccnc3)cc21` has an EC50 (MOLM-13) of 3.3 µM, an EC50 at 48 h [1] of 63.3 µM and an EC50 (MV4-11) of 3.6 µM. For the same molecule, the EC50 (KU812 cell line) was 5.4 µM, the EC50 (KCL-22) was 5.6 µM and the EC50 at 48 h [2] was 57.6 µM. It also gave an EC50 (K562) of 8.7 µM.
For `CC1(C)CCN(CCOc2ccc3[nH]ccc3c2)c2cc(Cc3ccccn3)ccc21`, the EC50 (MV4-11) was 34.2 µM and the EC50 (KU812 cell line) was > 100 µM.
With `CC1(C)CCN(CCOc2ccc3[nH]ccc3c2)c2ccc(-c3cncnc3)cc21` the EC50 (MV4-11) was 4.2 µM and the EC50 (KU812 cell line) was 8.3 µM.
With `CC1(C)CCN(CCOc2ccc3[nH]ccc3c2)c2cccc(-c3cccnc3)c21` the EC50 (MV4-11) was 5.9 µM and the EC50 (KU812 cell line) was 5.8 µM.
Molecule `CC1(C)CCN(CCOc2ccc3[nH]ccc3c2)c2ccc(-c3cnc(N)cn3)cc21` has an EC50 (MV4-11) of 13.7 µM and an EC50 (KU812 cell line) of 29.2 µM.
For `CC1(C)CCN(CCOc2ccc3[nH]ccc3c2)c2cccc(-c3cnccn3)c21`, the EC50 (MV4-11) was 15.3 µM and the EC50 (KU812 cell line) was 39.3 µM.
Molecule `CC1(C)CCN(CCOc2ccc3[nH]ccc3c2)c2cccc(-c3ccncc3)c21` has an EC50 (MV4-11) of 2.8 µM and an EC50 (KU812 cell line) of 2.5 µM.
In the case of `CC1(C)CCN(CCOc2ccc3[nH]ccc3c2)c2ccc(-c3ccnnc3)cc21`, the EC50 (MV4-11) is reported as 16 µM and the EC50 (KU812 cell line) is reported as 44.6 µM.
Work on `CC1(C)CCN(CCOc2ccc3[nH]ccc3c2)c2ccc(Cc3ccncc3)cc21` yielded an EC50 (MV4-11) of 25.8 µM and an EC50 (KU812 cell line) of 21.3 µM.
In the case of `CC1(C)CCN(CCOc2ccc3[nH]ccc3c2)c2cccc(Cc3ccncc3)c21`, the EC50 (MV4-11) is reported as 1.3 µM and the EC50 (KU812 cell line) is reported as 2.7 µM.
Molecule `CC1(C)CCN(CCOc2ccc3[nH]ccc3c2)c2cc(Cc3cccnc3)ccc21` has an EC50 (MV4-11) of 20.5 µM and an EC50 (KU812 cell line) of 25.1 µM.
`CC1(C)CCN(CCOc2ccc3[nH]ccc3c2)c2ccc(Cc3ccccn3)cc21` gave an EC50 (MV4-11) of 7.7 µM and an EC50 (KU812 cell line) of 11.5 µM.
`CC1(C)CCN(CCOc2ccc3[nH]ccc3c2)c2cccc(Cc3cccnc3)c21` showed an EC50 (MV4-11) of 3.1 µM and an EC50 (KU812 cell line) of 9.3 µM.
Work on `CC1(C)CCN(CCOc2ccc3[nH]ccc3c2)c2cc(Cc3ccncc3)ccc21` yielded an EC50 (MV4-11) of 14.3 µM.
In the case of `CC1(C)CCN(CCOc2ccc3[nH]ccc3c2)c2cccc(-c3cncnc3)c21`, the EC50 (MV4-11) is reported as 51.9 µM and the EC50 (KU812 cell line) is reported as > 100 µM.
With `CC1(C)CCN(CCOc2ccc3[nH]ccc3c2)c2cccc(-c3cnc(Cl)nc3)c21` the EC50 (MV4-11) was 9 µM and the EC50 (KU812 cell line) was 6.7 µM.
In the case of `CC1(C)CCN(CCOc2ccc3[nH]ccc3c2)c2cccc(-c3ccnnc3)c21`, the EC50 (MV4-11) is reported as 14 µM and the EC50 (KU812 cell line) is reported as 23.5 µM.
For `O=c1[nH]c2ccccc2n1C1CCN(CCCC(c2ccc(F)cc2)c2ccc(F)cc2)CC1` [PIMOZIDE], the EC50 (MOLM-13) was 5.9 µM, the EC50 at 48 h [1] was 57.5 µM and the EC50 (MV4-11) was 3.2 µM. For the same molecule, the EC50 (KU812 cell line) was 2.9 µM, the EC50 (KCL-22) was 9.3 µM and the EC50 at 48 h [2] was 18.2 µM. For the same molecule, the EC50 (K562) was 3.5 µM.
For `CC1(C)CCN(CCOc2ccc3[nH]ccc3c2)c2ccc(-c3cnc(C#N)nc3)cc21`, the EC50 (MV4-11) was 3.5 µM and the EC50 (KU812 cell line) was 2.4 µM.
In the case of `CC1(C)CCN(CCOc2ccc3[nH]ccc3c2)c2cccc(-c3cnc(N)cn3)c21`, the EC50 (MV4-11) is reported as 14.6 µM and the EC50 (KU812 cell line) is reported as 21.2 µM.
For `CC1(C)CCN(CCOc2ccc3[nH]ccc3c2)c2ccc(-c3cnc(Cl)nc3)cc21`, the EC50 (MV4-11) was 2.4 µM and the EC50 (KU812 cell line) was 1.3 µM.
In the case of `CC1(C)CCN(CCOc2ccc3[nH]ccc3c2)c2cccc(-c3cnc(C#N)nc3)c21`, the EC50 (MV4-11) is reported as 5.1 µM and the EC50 (KU812 cell line) is reported as 4.7 µM.
Molecule `CC1(C)CCN(CCOc2ccc3[nH]ccc3c2)c2ccc(Cc3cccnc3)cc21` has an EC50 (MV4-11) of 4.9 µM and an EC50 (KU812 cell line) of 5.3 µM.
In the case of `CC(C)(C)c1cc(CN(C(=O)CN(Cc2ccc(Cl)cc2)S(=O)(=O)c2c(F)c(F)c(F)c(F)c2F)c2ccc(C(=O)O)cc2)cc(C(C)(C)C)c1`, the EC50 (MOLM-13) is reported as 2.8 µM, the EC50 at 48 h [1] is reported as 27.8 µM and the EC50 (MV4-11) is reported as 2.6 µM. The EC50 (KU812 cell line) was 4.3 µM, the EC50 (KCL-22) was 15.3 µM and the EC50 at 48 h [2] was 18.1 µM. It also gave an EC50 (K562) of 10.1 µM.
